Experimental data taken from ChEMBL document CHEMBL1157274, “Two new maytansinoids from maytenus buchananii” (1999).

Assays:
[1] = system: P388; assay: In vivo antitumor activity against mouse P388 cells at 0.1 to 1.6 ug/kg; format: functional
[2] = system: KB; assay: Cytotoxicity against human KB cells; format: functional

COc1cc2cc(c1Cl)N1CC(=O)C(C)(O)C(=O)N(C)[C@@H](C)C(=O)O[C@@H](CC1=O)[C@@]1(C)O[C@H]1[C@H](C)[C@@H]1C[C@@](O)(NC(=O)O1)[C@H](OC)/C=C/C=C(\C)C2 (some centres not stated) [MAYTANBICYCLINOL]
T/C [1]: 140%
ED50 [2]: <1 ×10⁻⁵ ug/ml
